The subject of experiment [1] is NO production induced by TLR-2 agonist R-FSL-1 in J774 cells. In words: Nitrite (NO) production induced by TLR-2 agonist R-FSL-1 in J774 cells. Type of experiment: cell-based. Particulars: 10^−6 M, 2 hr pre-exposure; R-FSL-1 300 ng/mL 17 hr. On the procedure:
J774 cells (ATCC passage 10 to 15) were cultured (2×10^5 cells/ml) in 24-well plates (Costar 3524 NY) in DMEM supplemented with FBS (10%).Three hours after plating, cell culture medium was replaced with 0.5 mL of the same medium containing 10^−6M of imidazolones derivatives for 2 hr pretreatment. Cells were then exposed to R-FSL1 (300 ng/ml) for 17 hr at 37° C. Cell culture media were collected and aliquots (10 μL) were mixed with 10 μL of 2,3 diaminonapthalene reagent (0.05 mg/mL in HCl 0.62M) for nitrite levels determination by fluorescence (λexc 365 nm and λem 430 nm) (Misko et al. (1993) Anal Biochem, 214, 11-16).

In experiment [2] the target is T1, recombinant soluble His-tagged CD36 (Homo sapiens, UniProt P16671).
T1 construct: recombinant soluble His-tagged CD36 functionalized surface
In words: SPR spectroscopy binding to CD36. Particulars: for Kd: SPR response for ligand 100 nM to 30 μM fitted to Langmuir isotherm; for SPR ΔλSPR (nm): SPR response on CD36 functionalized surface. On the procedure:
The affinity of the small peptide ligand binding to a recombinant soluble His-tagged CD36 functionalized surface was screened by SPR sensing as previously described (Bolduc, O. R.; Lambert-Lanteigne, P.; Colin, D. Y.; Zhao, S. S.; Proulx, C.; Boeglin, D.; Lubell, W. D.; Pelletier, J. N.; Féthière, J.; Ong, H.; Masson, J.-F. Analyst. 2011, 136, 3142-3148). Briefly, the SPR sensors were prepared by immobilizing the His-tagged CD36 to 3-mercaptopropionyl-leucinyl-histidinyl-aspartyl-leucinyl-histidinyl-aspartic acid (3-Mpa-LHDLHD) with Nα,Nα-bis(carboxymethyl)-L-lysine at the C-terminus, a modified peptide monolayer competent to bind His-tagged biomolecules. A calibration curve of the SPR response for ligand concentrations ranging from 100 nM to 30 μM was fitted to the Langmuir isotherm (Equation 1) to determine K (K=1/Kd) for the CD36-ligand system. ΔλSPR=(K[ligand])ΔλSPRmax(1+K[ligand])^−1 (1)

Experiment [3] concerns MAP kinase JNK phosphorylation induced by POVPC in RAW 264.7 murine macrophage cells. In words: JNK assay: POVPC-induced JNK phosphorylation in RAW 264.7 macrophages. It is filed as cell-based. Particulars: for EC50: 2 h pre-treatment 10^−9 to 10^−6 M, then 10 μg/mL POVPC 30 min, phospho-JNK/total-JNK ratio, read-out: JNK-kinase cellular assay EC50; for inhibitory activity on MAP kinase JNK phosphorylation relative to [azaTyr^4]GHRP-6, in words: POVPC-stimulated RAW 264.7 cells. The procedure: RAW264.7 murine macrophage cells (American Type Culture Collection, Manassas, Va.) pre-treated with N-amino-imidazolin-2-one peptide for 2 h at concentration varying from 10^−9 to 10^−6 M were stimulated with 10 μg/mL POVPC (Cayman chemical, Ann Arbor, Mich.) for 30 min at 37° C. Cells were lysed on ice and centrifuged at 12,000×g. Aliquots of the resulting supernatant (30 μg of protein) were analyzed on SDS-PAGE and electrotransferred on nitrocellulose membrane. The revelation was performed by incubating the membrane with primary antibody against phospho-JNK or total-JNK (Cell signalling, Pickering, Canada) (1:500) overnight and with secondary HRP-conjugated goat anti-rabbit IgG antibody (Jackson Immunoresearch Laboratories Inc., West Grove, Pa.) (1:10,000) for 1 h. Membrane was visualized by chemiluminescence and intensity of bands was measured with Image Quant software (Molecular Dynamics, Sunnyvale, Calif.). The ratio of phospho-JNK/total-JNK was used to determine the phosphorylation state of JNK modulated by the tested peptide.
RAW 264.7 murine macrophage cells were seeded at 2×10^6 cells/well in a 6-well plate and starved in serum-free media overnight at 37° C. Cells were first pre-treated with the N-amino-imidazolin-2one peptide mimic at concentrations ranging from 10^−9 to 10^−6 M for 2 h and then stimulated with 10 μg/mL POVPC (Cayman chemical, Ann Arbor, Mich.) for 30 min at 37° C. Medium was then removed and cell plates were immediately frozen at −80° C. Cells were then scrapped into 100 μl of RIPA (50 mM Tris-HCl pH 7.5, 150 mM NaCl, 1% Triton X™-100, 0.1% SDS, 25 mM NaF) containing 1 mM PMSF and 1 mM Na3VO4, and incubated on ice for 30 min. The soluble fractions were isolated by centrifugation at 12,000×g for 30 min. The supernatant was collected and proteins were assayed with BCA reagent. Aliquots ([…]) were analyzed on 10% SDS-PAGE and electrotransferred on nitrocellulose membrane. Membrane was blocked with 5% BSA in TBS-T and incubated overnight with primary antibody against phospho-JNK or total-JNK (1:500) (Cell signalling, Pickering, Canada) in 5% BSA TBS-T. The membranes were then washed 5 times with TBS-T and incubated with secondary HRP-conjugated goat anti-rabbit IgG antibody (1:10,000) in 5% BSA TBS-T for 1 h at room temperature. The reaction was visualized by chemiluminescence using SuperSignal™ West Dura (Thermo scientific, Rockford, Ill.) and signals analyzed with Chemilmager™ 5500 (Alpha Innotech, San Leandro, Calif.). The intensity of each band was measured by densitometry using Image Quant™ software (Molecular Dynamics, Sunnyvale, Calif.) and the phosphorylation state was determined from the intensity ratio of phospho-JNK/total-JNK. To determine IC50 of inhibition curves, intensity ratio data were plotted using Prism™ 4 software (GraphPad, La Jolla, Calif.).

Another experiment has as its system human TF-1 cells. In words: IL-1β-induced thymocyte (TF-1) proliferation, CyQUANT NF dye. It is filed as cell-based. Particulars: peptide 1 μM; human IL-1β 25 ng/mL; 48 h. On the procedure: Immune cell proliferation was assessed by DNA intercalation of CyQUANT NF® fluorescent dye (Invitrogen, Carlsbad, Calif., USA). Essentially, human TF-1 cells (CRL-2003, American Type Culture Collection) were cultured in complete RPMI 1640 (WISENT Inc., Montréal, Quebec, Canada) supplemented with human GM-CSF (2 ng/ml, PeptroTech, Rocky Hill, N.J., USA). Cells (passage 5 and at least 85% viable, as verified by trypan blue dying) were reincorporated into RPMI 1640 medium deprived of phenol red (Gibco Invitrogen®, Carlsbad, Calif., USA) and of growth factors [i.e. fetal bovine serum (FBS) and GM-CSF] for 18 h and split (5×10^3 cells in 200 μL/well) into 96-well non-adherent flat bottom culture plates (Sarstedt®, Nümbrecht, Germany). Following 15 min pre-incubation with peptide or peptidomimetic (1 μM), the cells were treated with human IL-1β (25 ng/mL, PeproTech®, Rocky Hill, N.J., USA) and re-incubated. After 48 h, the cells were centrifuged for 7 min at 300 g, reincorporated into Hank's Buffered Salt Solution (1×HBSS, 50 μL/well, Gibco Invitrogen®, Carlsbad, Calif., USA) and transferred into a 96-well polystyrene black plate (Corning Incorporated, Corning, N.Y., USA). An additional 50 μL solution made of CyQUANT NF® dye (component A, 1×) and CyQUANT NF™ delivery agent (component B, 1×) in 1×HBSS was added to the cells in each well, which were covered with aluminum foil and incubated for 45 min. Fluorescence intensity was measured using a microplate reader (Perkin Elmer Wallac Envision® 2104; Perkin Elmer®, California, USA) with excitation at 485 nm and emission detection at 530 nm (FITC 485 and FITC 531 filters, respectively). Hexaplicate experiments were repeated three times and results were analyzed by one-way analysis of variance (ANOVA) factoring for treatments, and data are presented as mean±standard error of the mean (SEM).

Residues, ends and D or L forms follow the SMILES beside them.

T1 sequence (P16671 30-439 limits assumed): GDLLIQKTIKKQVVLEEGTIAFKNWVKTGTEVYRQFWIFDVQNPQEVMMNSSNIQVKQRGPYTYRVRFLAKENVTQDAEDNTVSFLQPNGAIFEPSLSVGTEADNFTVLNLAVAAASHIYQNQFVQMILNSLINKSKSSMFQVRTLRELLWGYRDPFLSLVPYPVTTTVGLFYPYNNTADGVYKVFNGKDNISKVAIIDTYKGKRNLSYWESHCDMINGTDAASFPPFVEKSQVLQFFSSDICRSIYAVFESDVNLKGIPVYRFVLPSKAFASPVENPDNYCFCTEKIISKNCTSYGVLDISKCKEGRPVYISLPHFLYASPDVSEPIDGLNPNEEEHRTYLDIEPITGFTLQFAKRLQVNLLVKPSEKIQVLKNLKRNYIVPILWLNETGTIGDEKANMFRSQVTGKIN

For `Cc1c(-c2ccccc2)n(NC(=O)[C@H](C)NC(=O)[C@@H](Cc2c[nH]c3ccccc23)NC(=O)[C@@H](N)Cc2cnc[nH]2)c(=O)n1C(Cc1ccccc1)C(=O)N[C@@H](CCCCN)C(N)=O` (mixture of isomers) [DNDB3-01, His-D-Trp-Ala-(N-amino-4-methyl-5-phenyl-imidazolin-2-one)-DL-Phe-Lys-NH2], the “effect on nitrite/NO production induced by R-FSL-1, in words” value (shortened to “effect on nitrite/NO production induced”) in experiment [1] is “comparable to that of EP80317”.
Turning to `Cc1ccc(-c2c(C)n(C(Cc3ccccc3)C(=O)N[C@@H](CCCCN)C(N)=O)c(=O)n2NC(=O)[C@H](C)NC(=O)[C@@H](Cc2c[nH]c3ccccc23)NC(=O)[C@@H](N)Cc2cnc[nH]2)cc1` (mixture of isomers) [DNDB3-03, His-D-Trp-Ala-(N-amino-4-methyl-5-p-toluoyl-imidazol-2-one)-DL-Phe-Lys-NH2], the “effect on nitrite/NO production induced” value in experiment [1] was “comparable to that of EP80317”.
One may read the Kd as the constant that tells how readily two partners part at equilibrium. By EC50 is commonly meant the concentration needed to bring the measured effect to its halfway point. Turning to `Cc1cn(NC(=O)[C@H](C)NC(=O)[C@@H](Cc2c[nH]c3ccccc23)NC(=O)[C@@H](N)Cc2c[nH]cn2)c(=O)n1C(Cc1ccccc1)C(=O)N[C@@H](CCCCN)C(N)=O` (stereo partly drawn) [31a, His-D-Trp-Ala-(N-amino-4-methyl-imidazolin-2-one)-D-Phe-Lys-NH2], in experiment [2], the Kd was 4.9 µM and the “SPR ΔλSPR (nm)” value is recorded as 1.1 nm. In addition, in experiment [3], the 50% effective concentration (EC50) worked out at 0.0554 µM and the “inhibitory activity on MAP kinase JNK phosphorylation relative to [azaTyr^4]GHRP-6, in words” value is on record as “increased inhibitory activity”.
Consider `C[C@H](NC(=O)[C@@H](Cc1c[nH]c2ccccc12)NC(=O)[C@@H](N)Cc1c[nH]cn1)C(=O)Nn1cc(Cc2ccccc2)n([C@H](Cc2ccccc2)C(=O)N[C@@H](CCCCN)C(N)=O)c1=O` [31b, His-D-Trp-Ala-(N-amino-4-benzyl-imidazolin-2-one)-D-Phe-Lys-NH2], for which the “affinity for the CD36 receptor relative to [azaTyr^4]GHRP-6, in words” value in experiment [2] (SPR) was “comparable affinity”. The “SPR ΔλSPR (nm)” value in experiment [2] came to 1.6 nm. For the same compound, in experiment [3], the EC50 was more than 10 µM and the “inhibitory activity on MAP kinase JNK phosphorylation relative to [azaTyr^4]GHRP-6, in words” value was “relatively lower inhibitory activity”.
For `Cc1c(-c2ccccc2)n(NC(=O)[C@H](C)NC(=O)[C@@H](Cc2c[nH]c3ccccc23)NC(=O)[C@@H](N)Cc2cnc[nH]2)c(=O)n1[C@@H](Cc1ccccc1)C(=O)N[C@@H](CCCCN)C(N)=O` [DND B2-109, His-D-Trp-Ala-(N-amino-4-methyl-5-phenyl-imidazol-2-one)-L-Phe-Lys-NH2], the “effect on nitrite/NO production induced” value in experiment [1] is listed as “comparable to that of EP80317”.
On to `CC(C)C[C@@H](NC(=O)[C@@H](CCC(=O)O)NC(=O)[C@@H](C(C)C)N1CC=CCN(NC(=O)[C@@H](Cc2ccc(O)cc2)NC(=O)[C@H](N)CCCNC(=N)N)C1=O)C(=O)N[C@H](C)C(N)=O` [[Nad^3]-101.10, D-Arg-D-Tyr-Nad-D-Val-D-Glu-D-Leu-D-Ala-NH2] (HELM PEPTIDE1{[dR].[dY].[CC(C)[C@H](C(=O)[*:2])N1CC=CCN(N[*:1])C1=O].[dE].[dL].[dA].[am]}$$$$V2.0), for which, in the experiment with human TF-1 cells, the “exacerbated proliferation over the level of exogenous IL-1β” value stood at 53%.
As to `CC(C)C[C@@H](NC(=O)[C@@H](CCC(=O)O)NC(=O)[C@@H](C(C)C)N1CCCN(NC(=O)[C@@H](Cc2ccc(O)cc2)NC(=O)[C@H](N)CCCNC(=N)N)C1=O)C(=O)N[C@H](C)C(N)=O` [[Nap^3]-101.10, D-Arg-D-Tyr-Nap-D-Val-D-Glu-D-Leu-D-Ala-NH2] (HELM PEPTIDE1{[dR].[dY].[CC(C)[C@H](C(=O)[*:2])N1CCCN(N[*:1])C1=O].[dE].[dL].[dA].[am]}$$$$V2.0), in the experiment on human TF-1 cells, the “diminished IL-1β-induced proliferation” value is given as 41%.
For `C[C@H](NC(=O)[C@@H](Cc1c[nH]c2ccccc12)NC(=O)[C@@H](N)Cc1c[nH]cn1)C(=O)NN(Cc1ccc(O)cc1)C(=O)N[C@H](Cc1ccccc1)C(=O)N[C@@H](CCCCN)C(N)=O` [[azaTyr^4]GHRP-6, His-D-Trp-Ala-AzaTyr-D-Phe-Lys-NH2, reference compound] (HELM PEPTIDE1{H.[dW].A.[O=C(N(Cc1ccc(O)cc1)N[*:1])[*:2]].[dF].K.[am]}$$$$V2.0), the “SPR ΔλSPR (nm)” value in experiment [2] came to 1.8 nm. Moreover, the EC50 in experiment [3] is 0.214 µM.
With `C[C@H](NC(=O)[C@@H](Cc1c[nH]c2ccccc12)NC(=O)[C@@H](N)Cc1cnc[nH]1)C(=O)NN(Cc1ccc(O)cc1)C(=O)N[C@H](Cc1ccccc1)C(=O)N[C@@H](CCCCN)C(N)=O` [[azaTyr^4]GHRP-6, His-D-Trp-Ala-AzaTyr-D-Phe-Lys-NH2, reference compound] (HELM PEPTIDE1{H.[dW].A.[O=C(N(Cc1ccc(O)cc1)N[*:1])[*:2]].[dF].K.[am]}$$$$V2.0), the Kd in experiment [2] stood at 5 µM.
As to “HAlC-2MeDTrp-DLys-Trp-DPhe-Lys-NH2 [EP80317, reference compound]”, the “effect on nitrite/NO production induced” value in experiment [1] is listed as “negatively modulated nitrite production”.
For the compound “His-D-Trp-Ala-(N-amino-4-methyl-imidazolin-2-one)-D-Phe-Lys-NH2 [YGR 401-2]”, the “effect on nitrite/NO production induced” value in experiment [1] is reported as “comparable to that of EP80317”.
Still for that read-out and setting: the result for “His-D-Trp-Ala-(N-amino-4-methyl-imidazolin-2-one)-L-Phe-Lys-NH2 [YGR401-1]” reads “comparable to that of EP80317”; that for “His-azaPheAla-Trp-DPhe-Ala-NH2 [CP-1A(i), reference compound]”, “did not modulate NO production”.
